From patent publication US6472348B1, “Pyridone derivatives and herbicides” (Kumiai Chemical Industry Co., Ltd., priority 1996, dated 2002)

Columns and labels:
Assay type in all cases: in vivo
Parameters in all cases: scale not given here
Settings in all cases: 21st day after application
[1] = test system: corn (Ze); assay: Test Example 7: crop plant selectivity by upland field soil treatment (corn), phytotoxicity
In short: (§1)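 Greenhouse pot test: scores for herbicidal effect and corn phytotoxicity were given 21 days after soil treatment, against set rating standards. Crop and weed species (foxtail, smartweed, amaranth, lambsquarters, China jute) were sown together in sand and covered with soil beforehand.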

[2] = test system: green foxtail (Se); assay: Test Example 5: crop plant selectivity by upland field soil treatment (wheat), herbicidal effects
In short: (§2)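 Upland soil treatment test: crop and weed species sown in sand-filled pots and covered with soil before compound application. Visual scoring of weed control and wheat injury 21 days post-application, plants kept in a greenhouse, using a standard rating scale.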

[3] = test system: pale smartweed (Po); assay: as above
In short: as §2

[4] = test system: slender amaranth (Am); assay: as above
In short: as §2

[5] = test system: slender amaranth (Am); assay: Test Example 7: crop plant selectivity by upland field soil treatment (corn), herbicidal effects
In short: as §1

[6] = test system: green foxtail (Se); assay: Test Example 6: crop plant selectivity by upland field soil treatment (soybean), herbicidal effects
In short: (§3)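 Pre-emergence soil treatment; sand-filled pots, seeds sown then soil-covered; greenhouse culture; visual rating of weed control and soybean injury on day 21 post-application per standard scale.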

[7] = test system: China jute (Ab); assay: as above
In short: as §3

[8] = test system: pale smartweed (Po); assay: as above
In short: as §3

[9] = test system: common lambsquarters (Ch); assay: as above
In short: as §3

[10] = test system: slender amaranth (Am); assay: as above
In short: as §3

Row | Structure (SMILES) | Phytotoxicity Ze ([1]; dose 1.6 g ai/10a) | Herbicidal effects Se ([2]; dose 1.6 g ai/10a) | Herbicidal effects Po ([3]; dose 1.6 g ai/10a) | Herbicidal effects Am ([4]; dose 1.6 g ai/10a) | Herbicidal effects Am ([5]; dose 1.6 g ai/10a) | Phytotoxicity Ze ([1]; dose 6.3 g ai/10a) | Herbicidal effects Se ([2]; dose 6.3 g ai/10a) | Herbicidal effects Po ([3]; dose 6.3 g ai/10a) | Herbicidal effects Am ([4]; dose 6.3 g ai/10a) | Herbicidal effects Am ([5]; dose 6.3 g ai/10a) | Herbicidal effects Se ([6]; dose 6.3 g ai/10a) | Herbicidal effects Ab ([7]; dose 6.3 g ai/10a) | Herbicidal effects Po ([8]; dose 6.3 g ai/10a) | Herbicidal effects Ch ([9]; dose 6.3 g ai/10a) | Herbicidal effects Am ([10]; dose 6.3 g ai/10a) | Herbicidal effects Se ([6]; dose 1.6 g ai/10a) | Herbicidal effects Ab ([7]; dose 1.6 g ai/10a) | Herbicidal effects Po ([8]; dose 1.6 g ai/10a) | Herbicidal effects Ch ([9]; dose 1.6 g ai/10a) | Herbicidal effects Am ([10]; dose 1.6 g ai/10a)
1 | C#CCOc1cc(-c2ccc(C(F)(F)F)n(N)c2=O)c(F)cc1Cl [1-178] | 2 | 5 | 5 | 5 | 5 |  |  |  |  |  |  |  |  |  |  |  |  |  |  | 
2 | COc1cc(-c2ccc(C(F)(F)F)n(N)c2=O)c(F)cc1Cl [1-179] |  |  |  |  |  | 1 | 5 | 5 | 5 | 5 |  |  |  |  |  |  |  |  |  | 
3 | CCOCOc1cc(-c2ccc(C(F)(F)F)n(C)c2=O)c(F)cc1Cl [1-181] |  |  |  |  |  |  | 5 | 5 | 5 |  | 5 | 5 | 5 | 5 | 5 |  |  |  |  | 
4 | C=CCN1C(=O)COc2cc(F)c(-c3ccc(C(F)(F)F)n(C)c3=O)cc21 [Compound 2-7] |  | 5 | 5 | 5 |  |  |  |  |  |  | 5 | 5 | 5 | 5 | 5 | 5 | 5 | 5 | 5 | 5
5 | C#CCN1C(=O)COc2cc(F)c(-c3cn(C)c(C(F)(F)F)cc3=O)cc21 [Compound 7-1] |  |  |  |  |  |  | 5 | 5 | 5 |  | 5 | 5 | 5 | 5 |  |  |  |  |  | 
6 | Cn1c(C(F)(F)F)ccc(-c2cc(C#N)c(Cl)cc2F)c1=O [Compound No. 1-119, 3-(4-chloro-5-cyano-2-fluorophenyl)-1-methyl-6-trifluoromethyl-2(1H)-pyridone] |  |  |  |  |  | 1 |  |  |  | 5 | 5 | 5 | 5 | 5 | 5 |  |  |  |  | 
7 | C#CCN1C(=O)COc2cc(F)c(-c3ccc(C(F)(F)F)n(C)c3=O)cc21 [Compound No. 2-1, 3-[7-fluoro-2,3-dihydro-4-(2-propynyl)-1,4-benzoxazin-3-on-6-yl]-1-methyl-6-trifluoromethyl-2(1H)-pyridone] |  | 5 | 5 | 5 |  |  |  |  |  |  | 5 | 5 | 5 | 5 | 5 | 5 | 5 | 5 | 5 | 5
8 | Cn1cc(-c2cc(Oc3ccccc3)c(Cl)cc2F)c(=O)cc1C(F)(F)F [Compound No. 6-19, 5-(4-chloro-2-fluoro-5-phenoxyphenyl)-1-methyl-2-trifluoromethyl-4(1H)-pyridone] |  | 5 | 5 | 5 |  |  | 5 | 5 | 5 |  | 5 | 5 | 5 | 5 | 5 | 5 | 3 | 5 | 3 | 5
9 | Cc1cc2c(-c3cn(C)c(C(F)(F)F)cc3=O)c(F)cc(Cl)c2o1 [Compound No. 9-1, 5-(7-chloro-5-fluoro-2-methylbenzofuran-4-yl)-1-methyl-2-trifluoromethyl-4(1H)-pyridone] |  | 5 | 5 | 5 |  |  | 5 | 4 | 5 |  |  |  |  |  |  |  |  |  |  | 
